{
  "source": "patent US12351580B2",
  "about": "“NLRP3 modulators” (Innate Tumor Immunity, Inc., priority 2017, dated 2025)",
  "data": [
    {"biological_target": "T1, hNLRP3 (Homo sapiens, UniProt Q96P20)", "T1 construct": "THP-1 cells were purchased from the American Type Culture Collection; host or cells: THP-1 cells, PMA-differentiated", "T1 sequence (Q96P20 whole entry)": "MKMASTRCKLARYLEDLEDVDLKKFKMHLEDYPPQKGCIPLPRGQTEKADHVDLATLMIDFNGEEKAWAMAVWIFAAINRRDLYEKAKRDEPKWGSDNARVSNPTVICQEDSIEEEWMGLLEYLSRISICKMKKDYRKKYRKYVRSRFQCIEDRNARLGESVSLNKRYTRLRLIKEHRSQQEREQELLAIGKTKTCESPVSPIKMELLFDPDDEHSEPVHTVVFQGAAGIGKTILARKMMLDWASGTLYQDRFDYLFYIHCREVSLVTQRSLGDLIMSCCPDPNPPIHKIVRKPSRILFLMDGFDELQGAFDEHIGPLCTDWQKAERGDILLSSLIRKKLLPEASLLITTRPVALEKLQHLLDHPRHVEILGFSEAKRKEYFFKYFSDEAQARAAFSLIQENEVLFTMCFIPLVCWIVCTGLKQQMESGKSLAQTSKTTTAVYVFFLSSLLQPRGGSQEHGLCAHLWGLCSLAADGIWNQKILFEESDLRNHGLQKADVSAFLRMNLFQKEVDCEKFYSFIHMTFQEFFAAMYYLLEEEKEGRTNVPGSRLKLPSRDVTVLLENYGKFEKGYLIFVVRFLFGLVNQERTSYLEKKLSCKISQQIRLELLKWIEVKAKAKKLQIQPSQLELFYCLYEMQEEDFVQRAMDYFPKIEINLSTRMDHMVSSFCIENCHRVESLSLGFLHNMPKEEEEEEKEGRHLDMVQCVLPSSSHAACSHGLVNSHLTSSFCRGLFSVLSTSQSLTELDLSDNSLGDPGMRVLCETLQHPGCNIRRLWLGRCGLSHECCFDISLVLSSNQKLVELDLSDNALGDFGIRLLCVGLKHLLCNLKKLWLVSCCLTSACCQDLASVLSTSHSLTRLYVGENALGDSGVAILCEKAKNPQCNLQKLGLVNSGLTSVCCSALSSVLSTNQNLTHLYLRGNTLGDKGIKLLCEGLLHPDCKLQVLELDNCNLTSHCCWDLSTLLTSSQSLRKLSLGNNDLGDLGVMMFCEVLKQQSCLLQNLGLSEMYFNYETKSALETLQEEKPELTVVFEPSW", "assay": "Measurement of IL-1β production in PMA-differentiated THP-1 cells (hNLRP3 agonist; ELISA, alternative and hTRF procedures)", "format": "cell-based", "outline": "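Supernatant IL-1β was quantified by ELISA in two procedures and by hTRF (kit antibodies at 1:40) in a third. THP-1 cells were first differentiated with PMA ([…] for 24 h; 20 μg/ml overnight; 50 ng/ml overnight), then incubated in 2% FBS RPMI with compounds for 4 h, 2 h and 2 h, respectively, at 1% DMSO or a 10 μM top concentration.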", "units": {"EC50": "µM"}, "values": [
      {"smiles": "Cc1cccc(-c2ccc3c(c2)nc(N)c2nc(CN4CCCC4=O)[nH]c23)c1", "note": "[Compound 286, 1-[[4-amino-7-(3-methylphenyl)-1H-imidazo[4,5-c]quinolin-2-yl]methyl]pyrrolidin-2-one]", "EC50": 0.61},
      {"smiles": "COC(=O)CCCn1c(CN2CCCC2=O)nc2c(N)nc3cc(Cl)ccc3c21", "note": "[Compound 216]", "EC50": 6.6},
      {"smiles": "CCN(Cc1nc2c(N)nc3cc(Cl)ccc3c2n1CCCC(=O)N1CCOCC1)C(C)=O", "note": "[Compound 220]", "EC50": 51},
      {"smiles": "CCN(Cc1nc2c(N)nc3cc(C4CCCC4)ccc3c2[nH]1)C(C)=O", "note": "[Compound 173, N-[(4-amino-7-cyclopentyl-1H-imidazo[4,5-c]quinolin-2-yl)methyl]-N-ethylacetamide]", "EC50": 0.84},
      {"smiles": "CCN(Cc1nc2c(N)nc3cc(-c4ccccc4)ccc3c2[nH]1)C(C)=O", "note": "[Compound 165, N-[(4-amino-7-phenyl-1H-imidazo[4,5-c]quinolin-2-yl)methyl]-N-ethylacetamide]", "EC50": 0.19},
      {"smiles": "CCN(Cc1nc2c(N)nc3cc(Cl)ccc3c2n1CCCC(=O)NC)C(C)=O", "note": "[Compound 217]", "EC50": 96},
      {"smiles": "Nc1nc2cc(-n3cccn3)ccc2c2[nH]c(CN3CC(c4ccccc4)CC3=O)nc12", "note": "(stereo not shown) [Compound 103]", "EC50": 0.52},
      {"smiles": "Nc1nc2cc(-c3cccc(Cl)c3)ccc2c2[nH]c(CN3CCCC3=O)nc12", "note": "[Compound 285, 1-[[4-amino-7-(3-chlorophenyl)-1H-imidazo[4,5-c]quinolin-2-yl]methyl]pyrrolidin-2-one]", "EC50": 5.7},
      {"smiles": "CCN(Cc1nc2c(N)nc3cc(C(C)C)ccc3c2[nH]1)C(C)=O", "note": "[Compound 170, N-[(4-amino-7-propan-2-yl-1H-imidazo[4,5-c]quinolin-2-yl)methyl]-N-ethylacetamide]", "EC50": 7.9},
      {"smiles": "CCN(Cc1nc2c(N)nc3cc(-c4cc(C)nn4C)ccc3c2[nH]1)C(C)=O", "note": "[Compound 168, N-[[4-amino-7-(2,5-dimethylpyrazol-3-yl)-1H-imidazo[4,5-c]quinolin-2-yl]methyl]-N-ethylacetamide]", "EC50": 101},
      {"smiles": "CCN(Cc1nc2c(N)nc3cc(-c4cccnc4)ccc3c2[nH]1)C(C)=O", "note": "[Compound 166, N-[(4-amino-7-pyridin-3-yl-1H-imidazo[4,5-c]quinolin-2-yl)methyl]-N-ethylacetamide]", "EC50": 3.4},
      {"smiles": "CCCc1ccc2c(c1)nc(N)c1nc(CN(CC)C(C)=O)[nH]c12", "note": "[Compound 172, N-[(4-amino-7-propyl-1H-imidazo[4,5-c]quinolin-2-yl)methyl]-N-ethylacetamide]", "EC50": 2.1},
      {"smiles": "Nc1nc2cc(-c3cccc(F)c3)ccc2c2[nH]c(CN3CCCC3=O)nc12", "note": "[Compound 289, 1-[[4-amino-7-(3-fluorophenyl)-1H-imidazo[4,5-c]quinolin-2-yl]methyl]pyrrolidin-2-one]", "EC50": 1.58}
    ]}
  ]
}
